Data published in patent US6953789B2, “Thiol compounds, their production and use” (Takeda Chemical Industries, Ltd., priority 1998, dated 2005).

Biological target: T1, recombinant human MMP-13 (Homo sapiens, UniProt P45452)
T1 construct: made in house; host or cells: baculovirus (pBlueBac4 / Bac-N-Blue; virus made in Sf9), expressed in High-Five insect cells; culture supernatant used
Test: Assay of MMP-13 inhibiting activity (fluorogenic peptide substrate)
Format: biochemical
Details: Table 3; 37° C., 2 hours
Source text: Based on the sequence described in the literature by Freije, J. M. et al (Journal of Biological Chemistry, 269: 16766-16773, 1994) and using a PCR method known per se, a human MMP-13 cDNA was obtained.
A pBlueBac4 (Invitrogen) and a Baculovirus vector Bac-N-Blue (Invitrogen) to each of which the human MMP-13 cDNA obtained above was integrated were co-transfected to an Sf9 cell to obtain a MMP-13-expressing recombinant virus.
The recombinant virus thus obtained was infected to a High-Five cell (Invitrogen), and the culture supernatant after three days was employed as an enzyme solution. Experiment 2 Assay of MMP-13 inhibiting activity
75 μl of a sample containing the recombinant human MMP-13, 200 mM sodium chloride, 20 mM calcium chloride, 0.1% Brij 35, 1 mM 2-mercaptoethanol, 200 mM tris-HCl buffer solution (pH7.5) and a test substance at various concentrations was treated with 25 μl of 40 μM MOCAc-Pro-Leu-Gly-Leu-A2pr(DNP)-Ala-Arg-NH2 (PEPTIDE KENKYUSHO) to initiate a reaction and kept at 37° C. for 2 hours, and then 100 μl of 500 mM sodium acetate-HCl buffer solution (pH3.0) was added to terminate the reaction.
The level of liberated MOCAc-Pro-Leu-Gly was determined using a fluorophotometer (MTP-32/F2: CORONA DENKI) at the excitation wavelength of 330 nm and the fluorescent wavelength of 405 nm. The fluorescent level of the reaction in the absence of a test substance was regarded as 100%, and the concentration of each test substance required for achieving 50% inhibition was indicated as IC50.

`CNC(=S)S[C@@H]1CC(=O)N(Cc2ccc(Oc3ccccc3)cc2)C1` [Example 76] and `CCCC(=O)S[C@@H]1CC(=O)N(Cc2ccc(Oc3ccccc3)cc2)C1` [Example 65, S-[(3R)-5-oxo-1-(4-phenoxybenzyl)pyrrolidinyl]butanethioate] are within 1.5-fold of each other in IC50: 0.0012 µM for the first, 0.0013 µM for the second.

Compared with `CC(=O)NC(=O)S[C@@H]1CC(=O)N(Cc2ccc(Oc3ccccc3)cc2)C1` [Example 55, S-[(3R)-5-oxo-1-(4-phenoxybenzyl)pyrrolidinyl]acetylthiocarbamate], `CCSS[C@@H]1CC(=O)N(Cc2ccc(Oc3ccccc3)cc2)C1` [Example 79, (4R)-4-(Ethyldisulfanyl)-1-(4-phenoxybenzyl)-2-pyrrolidinone] is 77-fold higher in IC50: 0.0013 µM for the first, 0.1 µM for the second. The first is the more potent here.

Going from `CC(C)C(=O)S[C@@H]1CC(=O)N(Cc2ccc(Oc3ccccc3)cc2)C1` [Example 67, S-[(3R)-5-oxo-1-(4-phenoxybenzyl)pyrrolidinyl]2-methylpropanethioate] to “Ethyl 3-{[(3R)-5-oxo-1-(4-phenoxybenzyl)-2-pyrrolidinyl]disulfanyl}propanoate [Example 84]”, the IC50 rises from 0.011 µM to 0.032 µM (2.9-fold). The first is the more potent here.

First: CC(=O)NCS[C@@H]1CC(=O)N(Cc2ccc(Oc3ccccc3)cc2)C1 [Example 100, N-({[(3R)-5-Oxo-1-(4-phenoxybenzyl)pyrrolidinyl]sulfanyl}methyl)acetamide]
Second: CCOC(=O)S[C@@H]1CC(=O)N(Cc2ccc(Oc3ccccc3)cc2)C1 [Example 107, O-Ethyl S-[(3R)-5-oxo-1-(4-phenoxybenzyl)pyrrolidinyl]carbanothioate]
The IC50 of the first is 67-fold higher: 2 µM for the first, 0.03 µM for the second.

First: O=C1CC(S[C@@H]2CC(=O)N(Cc3ccc(Oc4ccccc4)cc3)C2)C(=O)N1 (stereo partly drawn) [Example 105, 3-{[(3R)-5-Oxo-1-(4-phenoxybenzyl)pyrrolidinyl]sulfanyl}-2,5-pyrrolidinedione]
Second: CN(C)C(=O)S[C@@H]1CC(=O)N(Cc2ccc(Oc3ccccc3)cc2)C1 [Example 62, S-[(3R)-5-oxo-1-(4-phenoxybenzyl)pyrrolidinyl]dimethylcarbamothioate]
The IC50 of the first is 75-fold lower: 0.04 µM for the first, 3 µM for the second.

Going from `CC(C)(C)OC(=O)CC(=O)S[C@@H]1CC(=O)N(Cc2ccc(Oc3ccccc3)cc2)C1` [Example 72, t-Butyl 3-oxo-3-{[(3R)-5-oxo-1-(4-phenoxybenzyl)pyrrolidinyl]sulfanyl}propanoate] to `O=C(O)CCSS[C@@H]1CC(=O)N(Cc2ccc(Oc3ccccc3)cc2)C1` [Example 85], the IC50 rises from 0.0024 µM to 0.46 µM (190-fold).

Compared with `O=C(SC1CC(=O)N(Cc2ccc(Oc3ccccc3)cc2)C1)C(c1ccccc1)c1ccccc1` (stereo not drawn) [Example 70, S-[5-oxo-1-(4-phenoxybenzyl)-3-pyrrolidinyl] 2,2-diphenylethanethioate], `O=C1C[C@@H](SSc2ccccc2[N+](=O)[O-])CN1Cc1ccc(Oc2ccccc2)cc1` [Example 87, (4R)-4-[(2-Nitrophenyl)disulfanyl)-1-(4-phenoxybenzyl)-2-pyrrolidinone] is 300-fold higher in IC50: 0.002 µM for the first, 0.6 µM for the second. The first is the more potent here.

Work on `O=C1CC(S)CN1Cc1ccc(Oc2ccccc2)cc1` (stereo not shown) [Example 17, 4-Mercapto-1-(4-phenoxybenzyl)pyrrolidin-2-one] yielded an IC50 of 0.005 µM.

Same assay, conditions: Table 5; 37° C., 2 hours

Compared with `CCCNC(=O)OC[C@H]1[C@H](S)CC(=O)N1Cc1ccc(Oc2ccccc2)cc1` (relative stereo) [Example 184, trans-4-Mercapto-5-propylaminocarbonyloxymethyl-1-(4-phenoxybenzyl)pyrrolidin-2-one], `CC(=O)SC1CC(=O)N(Cc2ccc(Oc3ccccc3)cc2)C1CO` (stereo not drawn) [Example 20, Trans-4-acetylthio-5-hydroxymethyl-1-(4-phenoxybenzyl)pyrrolidin-2-one] is 4.3-fold higher in IC50: 0.0023 µM for the first, 0.01 µM for the second.

`CC(=O)S[C@@H]1CC(=O)N(Cc2ccc(Oc3ccccc3)cc2)[C@H]1COC1CCCCO1` (relative stereo) [Example 185, trans-4-Acetylthio-5-(tetrahydro-2H-pyran-2-yl)oxymethyl-1-(4-phenoxybenzyl)pyrrolidin-2-one] and `CC(=O)S[C@@H]1CC(=O)N(Cc2ccc(Oc3ccccc3)cc2)[C@H]1Cc1ccccc1` (relative stereo) [Example 181, trans-4-Acetylthio-5-benzyl-1-(4-phenoxybenzyl)pyrrolidin-2-one] are within 1.5-fold of each other in IC50: 0.006 µM for the first, 0.008 µM for the second.

Going from `O=C1C[C@@H](S)[C@H](Cc2ccccc2)N1Cc1ccc(Oc2ccccc2)cc1` (relative stereo) [Example 182, trans-5-Benzyl-4-mercapto-1-(4-phenoxybenzyl)pyrrolidin-2-one] to `CCOC(=O)CNC(=O)[C@H]1[C@H](SC(C)=O)CC(=O)N1Cc1ccc(Oc2ccccc2)cc1` (relative stereo) [Example 186, trans-4-Acetylthio-5-ethoxycarbonylmethylaminocarbonyl-1-(4-phenoxybenzyl)pyrrolidin-2-one], the IC50 rises from 0.02 µM to 0.05 µM (2.5-fold).

Same assay, conditions: Table 8; 37° C., 2 hours

Work on `O=C(SC1CCN(Cc2ccc(Oc3ccccc3)cc2)C1=O)c1ccccc1` (stereo not shown) [Example 28, 3-Benzoylthio-1-(4-phenoxybenzyl)pyrrolidin-2-one] yielded an IC50 of 1 µM.

Same assay, conditions: Table 9; 37° C., 2 hours

Going from `CC(=O)SC1CC(=O)N(Cc2ccc(Oc3ccc(Br)cc3)cc2)C1` (stereo not shown) [Example 34, 4-Acetylthio-1-(4-(4′-bromophenoxy)benzyl)pyrrolidin-2-one] to `CCNC(=O)Nc1ccc(Oc2ccc(CN3CC(SC(C)=O)CC3=O)cc2)cc1` (stereo not shown) [Example 148, 4-Acetylthio-1-[4-(4′-ethylaminocarbonylaminophenoxy)benzyl]pyrrolidin-2-one], the IC50 rises from 0.01 µM to 0.025 µM (2.5-fold). The first is the more potent here.

Going from `O=C1CC(S)CN1Cc1ccc(Oc2ccc(C(F)(F)F)cc2)cc1` (stereo not shown) [Example 130, 4-Mercapto-1-{4-[4′-(trifluoromethyl)phenoxy]benzyl}pyrrolidin-2-one] to “4-Acetylthio-1-[4-(2′-fluorophenoxy)benzyl]pyrrolidin-2-one [Example 112]”, the IC50 rises from 0.01 µM to 0.02 µM (2-fold). The first is the more potent here.

`O=C1CC(S)CN1Cc1ccc(Oc2ccc(Cl)cc2)cc1` (stereo not shown) [Example 33, 4-Mercaoto-1-(4-(4′-chlorophenoxy)benzyl)pyrrolidin-2-one] and `O=C1CC(S)CN1Cc1ccc(Oc2ccc(F)cc2F)cc1` (stereo not shown) [Example 120, 4-Mercapto-1-[4-(2′,4′-difluorophenoxy)benzyl]pyrrolidin-2-one] are within 1.5-fold of each other in IC50: 0.005 µM for the first, 0.007 µM for the second.

First: O=C1CC(S)CN1Cc1ccc(Oc2ccccc2F)cc1 (stereo not shown) [Example 113, 4-Mercapto-1-[4-(2′-fluorophenoxy)benzyl]pyrrolidin-2-one]
Second: CC(=O)Nc1ccc(Oc2ccc(CN3CC(S)CC3=O)cc2)cc1 (stereo not shown) [Example 145, 4-Mercapto-1-[4-(4′-acetoaminophenoxy)benzyl]pyrrolidin-2-one]
The IC50 of the first is 3.1-fold higher: 0.004 µM for the first, 0.0013 µM for the second.

Compared with `CCNC(=O)Nc1ccc(Oc2ccc(CN3CC(S)CC3=O)cc2)cc1` (stereo not shown) [Example 149, 4-Mercapto-1-[4-(4′-ethylaminocarbonylaminophenoxy)benzyl]pyrrolidin-2-one], `CC(=O)SC1CC(=O)N(Cc2ccc(Oc3ccc(F)c(F)c3)cc2)C1` (stereo not shown) [Example 121, 4-Acetylthio-1-[4-(3′,4′-difluorophenoxy)benzyl]pyrrolidin-2-one] is 5.7-fold higher in IC50: 0.0035 µM for the first, 0.02 µM for the second. The first is the more potent here.

Same assay, conditions: Table 10; 37° C., 2 hours

`O=C1CC(S)CN1Cc1ccc(OCc2ccccc2)cc1` (stereo not shown) [Example 166, 4-Mercapto-1-(4-benzyloxybenzyl)pyrrolidin-2-one] and `O=C1CC(S)CN1Cc1ccc(CCc2ccccc2)cc1` (stereo not shown) [Example 168, 4-Mercapto-1-(4-phenethylbenzyl)pyrrolidin-2-one] are within 1.5-fold of each other in IC50: 0.1 µM for the first, 0.07 µM for the second.

First: CC(=O)SC1CC(=O)N(Cc2ccc(Cc3ccccc3)cc2)C1 (stereo not shown) [Example 159, 4-Acetylthio-1-(4-benzylbenzyl)pyrrolidin-2-one]
Second: O=C1CC(S)CN1Cc1ccc([S+]([O-])c2ccccc2)cc1 (stereo not shown) [Example 172, 4-Mercapto-1-(4-phenylsulfinylbenzyl)pyrrolidin-2-one]
The IC50 of the first is lower: 0.5 µM for the first, over 10 µM for the second. The first is the more potent here.

Same assay, conditions: Table 11; 37° C., 2 hours

First: CC(=O)SC1CC(=O)N(Cc2ccc3oc4ccccc4c3c2)C1 (stereo not shown) [Example 201, 4-Acetylthio-1-(2-dibenzofuranmethyl)pyrrolidin-2-one]
Second: CC(=O)S[C@@H]1CC(=O)N(Cc2ccc(Oc3ccc4c(c3)OCO4)cc2)C1 [Example 198, S-{(3R)-1-{4-(1,3-benzodioxol-5-yloxy)benzyl]-5-oxopyrrolidinyl}ethanethioate]
The IC50 of the first is 25-fold higher: 0.3 µM for the first, 0.012 µM for the second.

Same assay, conditions: Table 12; 37° C., 2 hours

“S-[2-Oxo-1-(4-phenoxybenzyl)-4-piperidinyl]ethanethioate [Example 110]” and `CC(=O)SC1CCC(=O)N(Cc2ccc(Oc3ccccc3)cc2)C1` (stereo not drawn) [Example 108, S-[6-Oxo-1-(4-phenoxybenzyl)-3-piperidinyl]ethanethioate] are within 1.5-fold of each other in IC50: 0.25 µM for the first, 0.3 µM for the second.

Same assay, conditions: Table 13; 37° C., 2 hours

Compared with `CC(=O)SC1CCCN(Cc2ccc(Oc3ccccc3)cc2)C1=O` (stereo not shown) [Example 46, 3-Acetylthio-1-(4-phenoxybenzyl)piperidin-2-one], `O=C1C(S)CCCN1Cc1ccc(Oc2ccccc2)cc1` (stereo not shown) [Example 48, 3-Mercapto-1-(4-phenoxybenzyl)piperidin-2-one] is lower in IC50: over 10 µM for the first, 5 µM for the second.

`O=C(SC1CCC(=O)N(Cc2ccc(Oc3ccccc3)cc2)C1=O)c1ccccc1` (stereo not shown) [Example 44, 3-Benzoylthio-1-(4-phenoxybenzyl)piperidine-2,6-dione] showed an IC50 of 0.01 µM.
